From patent US5750361A (priority 1995, dated 1998)
“Also recorded” adds a separate entry of the source. Where a name gives a salt, the structure may show the parent alone.

Key:
[^35 S-]SHaPrP^C = [^35 S-]SHaPrP^C (Mesocricetus auratus, UniProt P04273); assay type: biochemical
proteinase K = assay type: biochemical
[^35 S-]PrP^C = assay type: biochemical, Syrian hamster

Sequence of [^35 S-]SHaPrP^C (P04273 23-254 limits assumed): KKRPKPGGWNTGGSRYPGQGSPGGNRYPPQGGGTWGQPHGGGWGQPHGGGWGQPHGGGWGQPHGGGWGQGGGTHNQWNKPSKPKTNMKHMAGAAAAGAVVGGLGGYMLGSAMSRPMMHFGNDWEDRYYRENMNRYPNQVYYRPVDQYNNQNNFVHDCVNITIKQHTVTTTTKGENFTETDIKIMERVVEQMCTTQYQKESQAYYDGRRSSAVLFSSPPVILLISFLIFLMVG

| SMILES | Effect of Sarkosyl on PrP^C /PrP peptide complexes ([^35 S-]SHaPrP^C) | Reduction of proteinase K activity (proteinase K) | Requirement of Gdn-HCl for complex formation ([^35 S-]PrP^C) |
| --- | --- | --- | --- |
| CCCCCCCCCCCC(=O)N(C)CC(=O)O [Sarkosyl] | disrupted the prion protein complexes and rendered the PrP^C sensitive to protease activity; also recorded: disrupted the PrP^C /PrP peptide complexes and rendered the PrP^C sensitive to protease activity | – | – |
| N=C(N)N [Gdn-HCl, guanidine hydrochloride] | – | ~ 90% | seemed to be essential |
